“And” between values parts separate entries of the source, which are not always exact repeats. Identical values can stand only once. Inconclusive results and toxic doses are left out. No stated cut-off is given here; in the data, active means T/C of 150% or more; inactive means T/C below 125%.
Tested on: L1210 leukemia ip in BDF1 mice, survival T/C
Experiment: NCI In Vivo Anticancer Drug Screen. Data for tumor model L1210 Leukemia (intraperitoneal) in B6D2F1 (BDF1) mice
Conditions: endpoint: mean survival time, higher = longer survival
Outline: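 Ratio derived from survival: compound-dosed mice over vehicle-dosed mice, all bearing a transplantable tumor.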

[1] = dose: 100.0 mg/kg/injection, schedule: Q04DX003 (ip), vehicle: saline
[2] = dose: 100.0 mg/kg/injection, schedule: Q04DX003 (ip), vehicle: saline with Tween-80
[3] = dose: 200.0 mg/kg/injection, schedule: Q04DX003 (ip), vehicle: saline with Tween-80
[4] = dose: 400.0 mg/kg/injection, schedule: Q04DX003 (ip), vehicle: saline with Tween-80
[5] = dose: 100.0 mg/kg/injection, schedule: Q04DX002 (ip), vehicle: Klucel (hydroxypropylcellulose) (HPC)
[6] = dose: 200.0 mg/kg/injection, schedule: Q04DX002 (ip), vehicle: Klucel (hydroxypropylcellulose) (HPC)
[7] = dose: 400.0 mg/kg/injection, schedule: Q04DX002 (ip), vehicle: Klucel (hydroxypropylcellulose) (HPC)
[8] = dose: 100.0 mg/kg/injection, schedule: Q01DX009 (ip), vehicle: Klucel (hydroxypropylcellulose) (HPC)

Measured: T/C

CC1CC2C(CC1O)C2(C)C (configuration not stated)
inactive: dose: 100.0 mg/kg/injection, schedule: Q01DX009 (ip), vehicle: saline 97 % of control | [1] 94 % of control | dose: 200.0 mg/kg/injection, schedule: Q01DX009 (ip), vehicle: saline 101 % of control | dose: 200.0 mg/kg/injection, schedule: Q04DX003 (ip), vehicle: saline 94 % of control | dose: 400.0 mg/kg/injection, schedule: Q01DX009 (ip), vehicle: saline 106 % of control | dose: 400.0 mg/kg/injection, schedule: Q04DX003 (ip), vehicle: saline 91 % of control

CC(=O)N1CCc2nc3ccccc3cc21
inactive: dose: 37.5 mg/kg/injection, schedule: Q01DX009 (ip), vehicle: saline with Tween-80 96 % of control | dose: 37.5 mg/kg/injection, schedule: Q04DX003 (ip), vehicle: saline 104 % of control | dose: 75.0 mg/kg/injection, schedule: Q01DX001 (ip), vehicle: saline 95 % of control | dose: 75.0 mg/kg/injection, schedule: Q01DX009 (ip), vehicle: saline with Tween-80 94 % of control | dose: 75.0 mg/kg/injection, schedule: Q04DX003 (ip), vehicle: saline 104 % of control | dose: 150.0 mg/kg/injection, schedule: Q01DX001 (ip), vehicle: saline 101 % of control | dose: 150.0 mg/kg/injection, schedule: Q01DX009 (ip), vehicle: saline with Tween-80 88 % of control | dose: 150.0 mg/kg/injection, schedule: Q04DX003 (ip), vehicle: saline 106 % of control

[O-][n+]1ccccc1CCl
inactive: dose: 50.0 mg/kg/injection, schedule: Q01DX001 (ip), vehicle: saline 98 % of control | dose: 100.0 mg/kg/injection, schedule: Q01DX001 (ip), vehicle: saline 100 % of control

CCNC(=O)C1C2CC3OC(=O)C1C3C2 (configuration not stated)
inactive: [2] 90 % of control | [3] 95 % of control | [4] 95 % of control

CCCCCCCCCCCCCc1nc(N)nc(N2CCOCC2)n1
inactive: [5] 92 % of control | [6] 95 % of control | [7] 92 % of control

O=c1oc(-c2ccccc2)n[n+]([O-])c1-c1ccccc1
inactive: dose: 50.0 mg/kg/injection, schedule: Q01DX009 (ip), vehicle: Klucel (hydroxypropylcellulose) (HPC) 98 % of control | [8] 98 % of control

CNc1c(C)cc(C)c(NC)c1C
inactive: dose: 100.0 mg/kg/injection, schedule: Q04DX002 (ip), vehicle: saline with Tween-80 107 % of control

COC1OC(COC(c2ccccc2)(c2ccccc2)c2ccccc2)C(OC(=S)SCc2ccccc2)C(OC)C1OC (configuration not stated)
inactive: dose: 25.0 mg/kg/injection, schedule: Q04DX002 (ip), vehicle: Klucel (hydroxypropylcellulose) (HPC) 108 % of control | dose: 50.0 mg/kg/injection, schedule: Q04DX002 (ip), vehicle: Klucel (hydroxypropylcellulose) (HPC) 104 % of control | [5] 104 % of control

CCOC(=O)Nc1ccc(F)cc1OC
inactive: dose: 100.0 mg/kg/injection, schedule: Q04DX002 (ip), vehicle: other 107 % of control | dose: 200.0 mg/kg/injection, schedule: Q04DX002 (ip), vehicle: other 104 % of control | dose: 400.0 mg/kg/injection, schedule: Q04DX002 (ip), vehicle: other 96 % of control

COc1ccc2nccc(/C=C/CC3CCN(C(C)=O)CC3)c2c1
inactive: dose: 12.5 mg/kg/injection, schedule: Q01DX009 (ip), vehicle: saline 98 % of control | dose: 12.5 mg/kg/injection, schedule: Q04DX003 (ip), vehicle: Klucel (hydroxypropylcellulose) (HPC) 103 % of control | dose: 25.0 mg/kg/injection, schedule: Q01DX009 (ip), vehicle: saline 96 % of control | dose: 25.0 mg/kg/injection, schedule: Q04DX003 (ip), vehicle: Klucel (hydroxypropylcellulose) (HPC) 107 % of control | dose: 50.0 mg/kg/injection, schedule: Q01DX009 (ip), vehicle: saline 101 % of control | dose: 50.0 mg/kg/injection, schedule: Q04DX003 (ip), vehicle: Klucel (hydroxypropylcellulose) (HPC) 103 % of control | [1] 102 % of control

CC(=O)OC1COC(SC(=N)N)C(OC(C)=O)C1OC(C)=O (configuration not stated)
inactive: dose: 75.0 mg/kg/injection, schedule: Q01DX001 (ip), vehicle: water 101 % of control and 104 % of control | dose: 150.0 mg/kg/injection, schedule: Q01DX001 (ip), vehicle: water 104 % of control and 103 % of control | dose: 300.0 mg/kg/injection, schedule: Q01DX001 (ip), vehicle: water 97 % of control and 95 % of control

CCCCCCCCc1c(N)nc(N)[nH]c1=O
inactive: dose: 100.0 mg/kg/injection, schedule: Q01DX001 (ip), vehicle: Klucel (hydroxypropylcellulose) (HPC) 99 % of control | dose: 200.0 mg/kg/injection, schedule: Q01DX001 (ip), vehicle: Klucel (hydroxypropylcellulose) (HPC) 92 % of control | dose: 400.0 mg/kg/injection, schedule: Q01DX001 (ip), vehicle: Klucel (hydroxypropylcellulose) (HPC) 92 % of control

CCOC(=O)c1cccnc1N(C(=O)c1ccccc1)C(=O)c1ccccc1
inactive: [5] 95 % of control | [6] 95 % of control | [7] 89 % of control

COc1ccc(OC)c(NC(=O)Nc2cc(OC)c(Cl)cc2OC)c1
inactive: [8] 105 % of control | dose: 200.0 mg/kg/injection, schedule: Q01DX009 (ip), vehicle: Klucel (hydroxypropylcellulose) (HPC) 94 % of control | dose: 400.0 mg/kg/injection, schedule: Q01DX009 (ip), vehicle: Klucel (hydroxypropylcellulose) (HPC) 87 % of control

O=C(Nc1ccsc1)c1ccccc1
inactive: dose: 100.0 mg/kg/injection, schedule: Q01DX001 (ip), vehicle: carboxymethylcellulose (CMC) 110 % of control | dose: 177.6 mg/kg/injection, schedule: Q01DX001 (ip), vehicle: carboxymethylcellulose (CMC) 98 % of control | dose: 200.0 mg/kg/injection, schedule: Q01DX001 (ip), vehicle: carboxymethylcellulose (CMC) 91 % of control | dose: 266.8 mg/kg/injection, schedule: Q01DX001 (ip), vehicle: carboxymethylcellulose (CMC) 100 % of control | dose: 400.0 mg/kg/injection, schedule: Q01DX001 (ip), vehicle: carboxymethylcellulose (CMC) 90 % of control | dose: 600.0 mg/kg/injection, schedule: Q01DX001 (ip), vehicle: carboxymethylcellulose (CMC) 102 % of control

COc1ccc2nc3ccccc3c(NCCNCCO)c2c1
inactive: dose: 5.0 mg/kg/injection, schedule: Q01DX001 (ip), vehicle: saline 97 % of control | dose: 6.0 mg/kg/injection, schedule: Q01DX Z (ip), vehicle: carboxymethylcellulose (CMC) 98 % of control | dose: 9.0 mg/kg/injection, schedule: Q01DX Z (ip), vehicle: carboxymethylcellulose (CMC) 92 % of control | dose: 10.0 mg/kg/injection, schedule: Q01DX001 (ip), vehicle: saline 106 % of control | dose: 20.0 mg/kg/injection, schedule: Q01DX001 (ip), vehicle: saline 101 % of control | dose: 40.0 mg/kg/injection, schedule: Q01DX001 (ip), vehicle: saline 97 % of control | dose: 80.0 mg/kg/injection, schedule: Q01DX001 (ip), vehicle: saline 92 % of control

O/N=C1\CCn2cccc21
inactive: [2] 91 % of control | [3] 91 % of control | [4] 87 % of control

COC(=O)c1cc([N+](=O)[O-])c(Cl)c([N+](=O)[O-])c1
inactive: dose: 12.5 mg/kg/injection, schedule: Q01DX009 (ip), vehicle: Klucel (hydroxypropylcellulose) (HPC) 98 % of control | dose: 25.0 mg/kg/injection, schedule: Q01DX009 (ip), vehicle: Klucel (hydroxypropylcellulose) (HPC) 87 % of control | dose: 100.0 mg/kg/injection, schedule: Q04DX003 (ip), vehicle: Klucel (hydroxypropylcellulose) (HPC) 89 % of control

c1ccc(C2(c3ccccc3)CC([P+](c3ccccc3)(c3ccccc3)c3ccccc3)=NN2CC[P+](c2ccccc2)(c2ccccc2)c2ccccc2)cc1
inactive: dose: 1.56 mg/kg/injection, schedule: Q01DX001 (ip), vehicle: saline 107 % of control | dose: 3.12 mg/kg/injection, schedule: Q01DX001 (ip), vehicle: saline 91 % of control | dose: 6.25 mg/kg/injection, schedule: Q01DX001 (ip), vehicle: saline 108 % of control and 91 % of control

Reference: PubChem BioAssay AID248 (DTP/NCI, 2004)
